Results from patent publication US20130065820A1, “SYNTHETIC MYOSTATIN PEPTIDE ANTAGONISTS” (COVITA LIMITED, priority 2009, published 2013).
Several values for one entry are separate records, joined by “and”; a condition that tells them apart may be missing. Identical values can stand only once. Bridge positions count the residues as written; N and C are the ends. Ends that are not written are not given here.

What was measured:
myoblasts = test: Myoblast proliferation / biological activity of synthetic peptides with other cysteine connectivities (results not shown); assay type: cell-based; settings: synthetic peptides of stated connectivity or truncation
Protocol: (§1) Bovine C2C12 myoblasts were grown in Dulbecco's modified eagle medium according to the standard techniques (Thomas et al, 2000). The myoblast proliferation assay was carried out in uncoated 96-well microtitre plates. C2C12 cultures were seeded at 1000 cells/well. Following a 16-hour attachment period, test media containing varying concentrations of either the synthetic 310 peptide in the 2-3 conformation, the synthetic 310 peptide in the 1-4/2-3 conformation or the positive control (recombinant 310 peptide) were added and cells were incubated for a further 48 or 72 hour period. After the incubation period, proliferation was assessed using methylene blue photometric endpoint assay as previously described (Thomas et al, 2000).
A number of synthetic peptides were prepared having an amino acid sequence corresponding to amino acids at positions 267-310 and 282-310 of SEQ ID NO:1. Of the 267-310 peptides a number of different connectivities were prepared as follows: • 1. 1-3/2-4 • 2. 1-2/3-4 • 3. 1-2 • 4. 1-3 • 5. 1-4 • 6. 1-2, 3-4/1-3, 2-4 • 7. 2-4 • 8. 3-4 • 9. 1-4/2-3 • 10. Linear (no forced connectivity)
The peptides were synthesized as described above in example 1. Different cysteine residues were protected and deprotected to produce the specified connectivities and would be understood by a skilled worker.

C2C12 myoblasts [1] = test: Myoblast proliferation assay (methylene blue photometric endpoint); assay type: cell-based, Mouse; settings: for % proliferation above control: control (media + buffer) = 100%; for myoblast proliferation / biological activity (in words): 48 or 72 hours, compared to control (media and buffer only)
Source text: A synthetic peptide of the invention, or a functional variant or fragment thereof has the biological function of antagonising myostatin activity. To determine whether a synthetic peptide of the invention, or functional variant or fragment thereof, is able to antagonise myostatin activity, such activity can be tested by growing myoblasts in the presence or absence (control) of a candidate synthetic peptide of the invention. […] A suitable cell line could be murine C2Cl2 myoblasts (ATCC NO: CRL-1772), however, it will be appreciated that any suitable myoblast cell line could be used, such as primary ovine, bovine, porcine or human myoblasts.
as §1, with “The” for “Bovine C2C12 myoblasts were grown in Dulbecco's modified eagle medium according to the standard techniques (Thomas et al, 2000). The”

C2C12 myoblasts [2] = test: Nuclei count per well by DAPI staining of the myoblast proliferation plates; assay type: cell-based, Bovine
Protocol: as §1
To confirm that the increased proliferation observed in example 1 was not simply false positive results, the plates were used to count nuclei.
Cells in the wells of interest were stained with DAPI (4′-6-diamidino-2-phenylindole) which is a fluorescent dye that stains nuclei blue. DAPI was used at a concentration of […] in PBS and cells stained for 5 mins at room temperature, then washed once with PBS buffer. Images of each well were then captured via a Leica DMI 6000 microscope and an image analysis program (Image-Pro plus) utilised to count the nuclei. For each treatment (recombinant 310 positive control, and synthetic peptides (2-3) and (1-4/2-3) at 10 and 20 µg/ml), 3-6 wells per treatment were analysed.

myostatin = settings: recombinant peptide, WO 2008/016314; cited from earlier work

In the case of “1-2: Synthetic 267-310 myostatin peptide with 1-2 cysteine connectivity (DFGLDCDEHSTESRCCRYPLTVDFEAFGWDWIIAPKRYKANYCS; disulfide 6-15; not fully specified (bridges); cysteine pairing not given here; UniProt O18836 267-310, looked up, fragment)”, the “biological activity / enhanced myoblast proliferation (in words)” value (myoblasts) is reported as “not biologically active”.

With “1-3: Synthetic 267-310 myostatin peptide with 1-3 cysteine connectivity (DFGLDCDEHSTESRCCRYPLTVDFEAFGWDWIIAPKRYKANYCS; disulfide 6-16; not fully specified (bridges); cysteine pairing not given here; UniProt O18836 267-310, looked up, fragment)” the “biological activity / enhanced myoblast proliferation (in words)” value (myoblasts) was “not biologically active”.

With “1-4: Synthetic 267-310 myostatin peptide with 1-4 cysteine connectivity (DFGLDCDEHSTESRCCRYPLTVDFEAFGWDWIIAPKRYKANYCS; disulfide 6-43; not fully specified (bridges); cysteine pairing not given here; UniProt O18836 267-310, looked up, fragment)” the “biological activity / enhanced myoblast proliferation (in words)” value (myoblasts) was “not biologically active”.

For “2-4: Synthetic 267-310 myostatin peptide with 2-4 cysteine connectivity (DFGLDCDEHSTESRCCRYPLTVDFEAFGWDWIIAPKRYKANYCS; disulfide 15-43; not fully specified (bridges); cysteine pairing not given here; UniProt O18836 267-310, looked up, fragment)”, the “biological activity / enhanced myoblast proliferation (in words)” value (myoblasts) was “not biologically active”.

With “3-4: Synthetic 267-310 myostatin peptide with 3-4 cysteine connectivity (DFGLDCDEHSTESRCCRYPLTVDFEAFGWDWIIAPKRYKANYCS; disulfide 16-43; not fully specified (bridges); cysteine pairing not given here; UniProt O18836 267-310, looked up, fragment)” the “biological activity / enhanced myoblast proliferation (in words)” value (myoblasts) was “not biologically active”.

In the case of “310 positive control: Recombinant peptide of amino acids 267-310 of bovine myostatin with N terminal and C terminal tags, positive control (DFGLDCDEHSTESRCCRYPLTVDFEAFGWDWIIAPKRYKANYCS; cysteine pairing not given here; also: N- and C-terminal tags; UniProt O18836 267-310, looked up, fragment) [reference compound]”, the “% proliferation above control” value (C2C12 myoblasts [1]; 10 μg, 48 h) is reported as 113.58% and 111.76%, the “% proliferation above control” value (C2C12 myoblasts [1]; 10 μg, 72 h) is reported as 122.97% and 119.64% and the “myoblast proliferation / biological activity (in words)” value (C2C12 myoblasts [1]) is reported as “significantly enhanced myoblast proliferation”. The “Number of nuclei per well” value (C2C12 myoblasts [2]; 10 μg, 48 h) was 847.1 and 816.7 and the “Number of nuclei per well” value (C2C12 myoblasts [2]; 10 μg, 72 h) was 2429.3 and 2229.2.

With “310 synthetic peptide that was N-terminally truncated at amino acid position 282: Synthetic peptide of amino acids 282-310 of SEQ ID NO:1, only cysteines 3 and 4 (CRYPLTVDFEAFGWDWIIAPKRYKANYCS; only cysteines 3 and 4; listed as Homo sapiens)” the “biological activity / enhanced myoblast proliferation (in words)” value (myoblasts) was “not active”.

In the case of “Synthetic 310 (2-3 connectivity): Synthetic peptide of amino acids 267-310 of bovine myostatin with forced disulfide between cysteines 2 and 3 (281, 282) (DFGLDCDEHSTESRCCRYPLTVDFEAFGWDWIIAPKRYKANYCS; disulfide 15-16; not fully specified (bridges); cysteine pairing not given here; UniProt O18836 267-310, looked up, fragment)”, the “% proliferation above control” value (C2C12 myoblasts [1]; 0.1 μg, 48 h) is reported as 101.66%, the “% proliferation above control” value (C2C12 myoblasts [1]; 0.1 μg, 72 h) is reported as 101.06% and the “% proliferation above control” value (C2C12 myoblasts [1]; 1.0 μg, 48 h) is reported as 97.70%. The “% proliferation above control” value (C2C12 myoblasts [1]; 1.0 μg, 72 h) was 102.00%, the “% proliferation above control” value (C2C12 myoblasts [1]; 10 μg, 48 h) was 104.18% and the “% proliferation above control” value (C2C12 myoblasts [1]; 10 μg, 72 h) was 103.83%. The “% proliferation above control” value (C2C12 myoblasts [1]; 20.0 μg, 48 h) was 105.00%, the “% proliferation above control” value (C2C12 myoblasts [1]; 20.0 μg, 72 h) was 105.07% and the “myoblast proliferation / biological activity (in words)” value (C2C12 myoblasts [1]) was “biologically active”. The “Number of nuclei per well” value (C2C12 myoblasts [2]; 10 μg, 48 h) was 810.5, the “Number of nuclei per well” value (C2C12 myoblasts [2]; 10 μg, 72 h) was 1906.1 and the “Number of nuclei per well” value (C2C12 myoblasts [2]; 20.0 μg, 48 h) was 808.9. For the same substance, the “Number of nuclei per well” value (C2C12 myoblasts [2]; 20.0 μg, 72 h) was 1903.6, the “increase in cell numbers (in words)” value (C2C12 myoblasts [2]; 48 h) was “significant increases in cell numbers” and the “increase in cell numbers (in words)” value (C2C12 myoblasts [2]; 72 h) was “significant increases in cell numbers”.

With “Synthetic 310 (2-3/1-4 connectivity): Synthetic peptide of amino acids 267-310 of bovine myostatin (SEQ ID NO:4) with forced 2-3/1-4 disulfide connectivity (DFGLDCDEHSTESRCCRYPLTVDFEAFGWDWIIAPKRYKANYCS; disulfide 15-16, 6-43)” the “biological activity / enhanced myoblast proliferation (in words)” value (myoblasts) was “biologically active”, the “% proliferation above control” value (C2C12 myoblasts [1]; 0.1 μg, 48 h) was 100.17% and the “% proliferation above control” value (C2C12 myoblasts [1]; 0.1 μg, 72 h) was 100.54%. For the same substance, the “% proliferation above control” value (C2C12 myoblasts [1]; 1.0 μg, 48 h) was 100.07%, the “% proliferation above control” value (C2C12 myoblasts [1]; 1.0 μg, 72 h) was 102.60% and the “% proliferation above control” value (C2C12 myoblasts [1]; 10 μg, 48 h) was 108.58%. The “% proliferation above control” value (C2C12 myoblasts [1]; 10 μg, 72 h) was 107.51%, the “% proliferation above control” value (C2C12 myoblasts [1]; 20.0 μg, 48 h) was 106.87% and the “% proliferation above control” value (C2C12 myoblasts [1]; 20.0 μg, 72 h) was 110.47%. The “myoblast proliferation / biological activity (in words)” value (C2C12 myoblasts [1]) was “slightly more biological activity”, the “Number of nuclei per well” value (C2C12 myoblasts [2]; 10 μg, 48 h) was 810.2 and the “Number of nuclei per well” value (C2C12 myoblasts [2]; 10 μg, 72 h) was 2328.2. The “Number of nuclei per well” value (C2C12 myoblasts [2]; 20.0 μg, 48 h) was 739.3, the “Number of nuclei per well” value (C2C12 myoblasts [2]; 20.0 μg, 72 h) was 2172.0 and the “increase in cell numbers (in words)” value (C2C12 myoblasts [2]; 72 h) was “significant increases in cell numbers”.

In the case of “linear 310 synthetic peptide: Synthetic 267-310 myostatin peptide, linear, no forced connectivity (DFGLDCDEHSTESRCCRYPLTVDFEAFGWDWIIAPKRYKANYCS; Growth/differentiation factor 8 linear; UniProt O18836 267-310, looked up, fragment)”, the “biological activity / enhanced myoblast proliferation (in words)” value (myoblasts) is reported as “showed enhanced myoblast proliferation”.

In the case of “mature recombinant myostatin peptide C-terminally truncated at position 281: Recombinant mature myostatin peptide truncated at 281, two cysteines (1-2 connectivity), from WO 2008/016314 (DFGLDCDEHSTESRC; disulfide 6-15; UniProt O18836 267-281, looked up, fragment)”, the “biological activity (in words)” value (myostatin) is listed as “biologically active”.

In the case of “synthetic peptide having a truncation position at 281: Synthetic mature myostatin peptide C-terminally truncated at position 281 (DFGLDCDEHSTESRC; Growth/differentiation factor 8; UniProt O18836 267-281, looked up, fragment)”, the “biological activity / enhanced myoblast proliferation (in words)” value (myoblasts) is reported as “not biologically active”.
